Data taken from publication PMC7332481, “Ecotoxicity screening evaluation of selected pharmaceuticals and their transformation products towards various organisms” (Environmental Science and Pollution Research International, 2020).
≈ marks a conversion by molar mass, not a printed value.

What was measured:
[1] = tested on: Lemna minor; assay: L. minor growth inhibition test
Description: (§1) All tests were carried out in accordance with the OECD or ISO guidelines. In general the experimental part was divided into three main steps: (i) determination of the toxicity of the native forms of pharmaceuticals (their racemic mixtures), (ii) toxicity evaluation of the selected TPs of these pharmaceuticals, and (iii) preliminary toxicity assessment of the enantiomers of selected pharmaceuticals. For each assay, range-finding tests were conducted, in order to determine the range of concentrations for the definitive tests. The main tests were repeated three times in at least two parallel replicates, with a minimum of five concentrations for native forms of the selected pharmaceuticals (including their enantiomers). The exact number of replicates and concentrations tested was included in the description of each test. […] However, TPs were tested in a different manner; first, the tests were carried out at the limit concentration of 100 mg L^−1. […] Such approach was applied in order to observe the relative toxicity of the selected TP and its native form.
(§2) Dose-response curves were fitted using a linear logistic or logistic model (the model giving the best fit was chosen) (https://cran.r-project.org/web/packages/drfit/drfit.pdf). The mathematic formulas applied for this purpose are presented and described in the Supplementary Material. The EC50 values were given since log EC50 is a model parameter in the logistic as well as in linear logistic model.
One week before the assay, the inoculum cultures were prepared; eight healthy plants were placed into a new portion of the medium. Two days before the test, the plants were transferred to a fresh medium, in order to supplement nutrients and to eliminate plant metabolites. The experiments were performed in six-well plates under the conditions described above. The pH value of the Steinberg medium and all solutions was 5.5 (± 0.5). Every test included six different concentrations of compound and six controls in three replicates. The test started with one plant consisting of three fronds and the measured endpoint was the inhibition of growth rate determined by comparing the frond area (mm^2) for the treated plants and untreated controls.

[2] = tested on: Raphidocelis subcapitata; assay: R. subcapitata reproduction (growth) inhibition test; type: cell-based; conditions: for inhibition at 100 µg/mL: concentration 100 mg L^−1
Description: as §1, §2
Test organisms were provided from Algal Culture Collection (Universität Göttingen, Germany). […] The light-dark cycle was different from the OECD guidelines, and it was introduced to imitate natural growth conditions. In order to ensure that the algae are in the exponential growth phase when used to inoculate the test solutions, the stock culture was diluted three times a week. The test was carried out in 25 mL suspension cell culture flasks (Nunc) (working volume 10 mL). All operations were performed under sterile conditions. The initial cell concentration was 5 × 10^4 cells mL^−1. Eight different concentrations of every compound in three replicates and a minimum of six controls were used in each test. […] The test flasks were incubated on a shaker with a speed of approx. 75 rpm at the temperature and light conditions described above. Growth inhibition was calculated using the cell counts of the treated samples in relation to the untreated controls after 72 h of exposure. The cells were counted with the use of CASY TT Cell counter & analyzer.

[3] = tested on: Daphnia magna; assay: D. magna acute immobilization test; type: in vivo; conditions: for mortality at 100 µg/mL: concentration 100 mg L^−1
Description: as §1, §2
Five pre-fed test organisms were incubated with the studied compounds diluted in 10 mL of test media in glass test vessels at 20 °C (± 1 °C) in darkness for 48 h. Each test consisted of a control and five different concentrations of the studied compound in four parallel replicates. In order to achieve a full dose-response relationship, the concentration series covered the range of 0–100% immobilization. The number of immobilized or dead organisms was checked after 24 and 48 h. The negative effect of exposure to the tested compounds was expressed by the number of immobilized organisms compared to the controls.

[4] = tested on: Arthrobacter globiformis; assay: A. globiformis dehydrogenase inhibition test (version without soil); conditions: read-out: inhibition of bacterial growth (A. globiformis)
Description: as §1
The test strain was obtained from the German Collection of Microorganisms (DSMZ). A version of the test without soil was performed. Bacteria was grown in a sterile medium containing 10 g L^−1 peptone from casein, 5 g L^−1 yeast extract, 5 g L^−1 glucose, and 5 g L^−1 NaCl. For the test, the medium was diluted in a ratio of 1:3 in water. The inoculum was the bacteria in a log-growth phase. Cell density was adjusted to 1 × 10^8 cells mL^−1, which corresponds to an optical density (OD600nm) of 0.4. The test was performed in 24-well microplates. Each well contained 1 mL of solution of the tested compound in water and 1 mL of bacterial inoculum. Next, the plates were incubated for 2 h at 30 °C on a horizontal shaker with a speed of 100 rpm. To each well, a portion of 0.6 mL of the redox active dye resazurine (45 mg L^−1) dissolved in buffer was added. The microplates were further incubated for 1 h (30 °C, 100 rpm). To stop the reduction process, the plates were centrifuged at 3600g for 10 min. Aliquots (300 μl) of supernatant from each well were immediately transferred to the wells of a 96-well microplate in triplicates. Finally, the dehydrogenase activity was determined by measuring the formation of resorufin from resazurine using a fluorimeter ([…]). Dehydrogenase inhibition was calculated using Eq. 1.
where FBTS is the measured fluorescence of the blank (medium) with the tested substance, FTS is the measured fluorescence of the sample, FBNC is the measured fluorescence of the blank, and FNC is the measured fluorescence of the negative control (with bacteria).

[5] = tested on: Vibrio fischeri; assay: microbe, parasite or virus in culture; type: cell-based; conditions: for inhibition at 10 µg/mL: concentration 10 mg L^−1; for inhibition at 100 µg/mL: concentration 100 mg L^−1
Description: (§3) Stock solutions and dilutions were prepared in 2% NaCl in 0.02 M phosphate buffer, pH 7. The freeze-dried bacteria were rehydrated prior to testing in a reactivation solution. Culture suspensions and diluted samples were pre-incubated at 15 °C for 15 min. After the initial luminescence was measured, 0.5 mL of the culture suspension was mixed with the same volume of a diluted sample. The final bioluminescence was measured after 30 min. Incubation was kept at 15 °C (LUMIStox 300 meter, Dr. Lange GmbH, Berlin, Germany). The relative toxicity of the samples was expressed as a percentage of luminescence inhibition compared to the controls.
as §3, with “m,” for “meter,”

[6] = Lemna minor, read-out: Growth inhibition of L. minor
[7] = Aliivibrio fischeri, read-out: Luminescence inhibition
[8] = Raphidocelis subcapitata, read-out: Growth inhibition of R. subcapitata

In the case of CC(C)Cc1ccc([C@H](C)C(=O)O)cc1 [IBU Isomer S, S-ibuprofen], the EC50 ([1]; Lemna minor, 168 h, read-out: EC50 L. minor (with confidence interval 2.5–97.5%), growth rate inhibition by frond area, 7 days) is reported as 26.3 µg/mL (≈ 128 µM), the EC50 ([2]; Raphidocelis subcapitata, 72 h, growth inhibition by cell counts, 72 h, read-out: EC50 R. subcapitata (with confidence interval 2.5–97.5%)) is reported as 26.6 µg/mL (≈ 129 µM) and the EC50 ([3]; Daphnia magna, immobilization, 48 h, read-out: EC50 D. magna (with confidence interval 2.5–97.5%)) is reported as 63.1 µg/mL (≈ 306 µM).
With O=C(O)Cc1ccccc1Nc1c(Cl)cc(O)cc1Cl [4-OH-DIC, 4☒Hydroxydiclofenac] the inhibition at 15 µg/mL [1, 6] was 0%, the inhibition at 50 µg/mL ([2]; Raphidocelis subcapitata, concentration 50 mg L^−1) was 45% and the inhibition at 100 µg/mL [4] was 14%. For the same compound, the inhibition at 10 µg/mL [5, 7] was 38% and the mortality at 60 µg/mL ([3]; Daphnia magna, concentration 60 mg L^−1) was 8%.
For CC(C)Cc1ccc([C@@H](C)C(=O)O)cc1 (single isomer, unassigned) [IBU Isomer R, R-ibuprofen], the “EC50 L. minor (with confidence interval 2.5–97.5%)” value ([1]; growth rate inhibition by frond area, 7 days) was 12.36 (10.80–14.07) mg L^−1, the “EC50 R. subcapitata (with confidence interval 2.5–97.5%)” value ([2]; growth inhibition by cell counts, 72 h) was 11.65 (10.21–13.26) mg L^−1 and the “EC50 D. magna (with confidence interval 2.5–97.5%)” value ([3]; immobilization, 48 h) was 65.83 (59.54–72.54) mg L^−1.
In the case of CC(C)NCC(O)COc1ccc(CC(=O)O)cc1 (stereo not drawn) [MET-ACID, Metoprolol acid], the inhibition at 100 µg/mL [1, 6] is reported as 5%, the “toxicity to L. minor” value ([1]; highest tested concentration (100 mg L^−1)) is reported as “non-toxic” and the inhibition at 100 µg/mL [2, 8] is reported as 0%. It also gave an inhibition at 100 µg/mL [5, 7] of 0% and a mortality at 100 µg/mL ([3]; Daphnia magna) of 0%.
Compound CC(C(=O)O)c1ccc2cc(O)ccc2c1 (stereo not drawn) [O-DES-NAP, O-Desmethylnaproxen] has an inhibition at 25 µg/mL ([5]; Aliivibrio fischeri, concentration 25 mg L^−1, read-out: Luminescence inhibition) of 20% and a mortality at 70 µg/mL ([3]; Daphnia magna, concentration 70 mg L^−1, read-out: Immobilization) of 0%.
With NC(=O)N1c2ccccc2CC(O)c2ccccc21 (stereo not drawn) [10-OH-CRB, 10,11-Dihydro-10-hydroxycarbamazepine] the inhibition at 50 µg/mL [1, 6] was 11% and the inhibition at 100 µg/mL [2, 8] was 15%.
NC(=O)N1c2ccccc2C2OC2c2ccccc21 (stereo not drawn) [CRB-Ep, Carbamazepine 10,11-epoxide] showed an inhibition at 50 µg/mL [1, 6] of 32%, an inhibition at 100 µg/mL [2, 8] of 37% and an inhibition at 100 µg/mL [5, 7] of 30%. The mortality at 100 µg/mL ([3]; Daphnia magna) was 0%.
For CC(=O)Nc1ccc(S(=O)(=O)Nc2cc(C)on2)cc1 [N4-SMZ, N^4-Acetylsulfamethoxazole], the inhibition at 3 µg/mL [1, 6] was 17%, the inhibition at 5 µg/mL [2, 8] was 27% and the “toxic effect / risk to V. fischeri” value [5] was “negligible”. The inhibition at 50 µg/mL [5, 7] was 8% and the mortality at 40 µg/mL ([3]; Daphnia magna, read-out: Immobilization) was 0%.
Work on CC(Cc1ccc(C(C)C(=O)O)cc1)C(=O)O (stereo not drawn) [CBX-IBU, Carboxyibuprofen] yielded an inhibition at 15 µg/mL [1, 6] of 6%, an inhibition at 100 µg/mL [2, 8] of 14% and an inhibition at 10 µg/mL [5, 7] of 2%. It also gave a mortality at 50 µg/mL ([3]; Daphnia magna, concentration 50 mg L^−1) of 8%.
